Assays:
NF-κB pathway = test: NF-κB activation assay, A549 cells with SEAP reporter; format: cell-based, Human; conditions: for NF-κB activation (optical density, 630 nm): 24 hours after dosing; for NF-κB activation (optical density, 630 nm) / NF-κB activation in words: A549 cells; for NF-κB activation, times the basal level (DMSO control) / NF-κB activation in words: 24 hours; for NF-κB activation in words: 50 and/or 500 nM
From the text: As a high-throughput method of screening compounds for their ability to get into cells and activate immunological pathways related to HIV latency reversal ([46], [70]), we conducted an NF-κB reporter assay using A549 cells stably integrated with a secreted embryonic alkaline phosphatase reporter under the control of a promoter fused to five NF-κB binding sites (Fig. 7B) ([48], [70], [71]).
Human A549-Dual™ Cells supplied by InvivoGen (Cat. code a549d-nfis) and CHO-K1 cells were passaged when about 90% confluency was reached (approximately every three days). With each passage, media was aspirated from the cell layer, which was then washed with PBS. Following aspiration of the PBS, cells were detached from the culture flask with 0.25% GibcoTM Trypsin-EDTA and transferred to a 50 mL conical, which was volumed up with complete pre-warmed DMEM (4.5 g/L glucose, 10% FBS, and 1% Pen-Strep-Glutamine (100 X, 50 mg/mL)) or Ham's F-12K (Kaighn's) Medium supplemented with 10% FBS and 1% Pen-Strep (100 X, 50 mg/mL).
This conical was spun down at 1800 rpm for 3 minutes, the supernatant was removed, and cells were resuspended in their respective fresh, pre-warmed media. To count cells, 10 μL of resuspended cells were added to a sterile microcentrifuge tube and mixed with 10 μL of trypan blue after which 10 μL of the mixture was pipetted into a Countess chamber slide. A Countess™ 3 Automated Cell Counter was subsequently utilized to determine cell viability and concentration.
1 x 10^6 cells were seeded with each passage into a T75 culture flask, and cells were incubated at […]
Human A549 lung carcinoma cells (InvivoGen Cat. code a549d-nfis), stably integrated with a secreted embryonic alkaline phosphatase (SEAP) reporter, allow for the activity of the NF-κB pathway to be monitored. The SEAP reporter is under control of the interferon β (IFN-β) minimal promoter, which is fused to five NF-κB binding sites.
5 × 10^4 A549 cells were plated on Corning® 96 Well TC-Treated Microplates (CLS3595) in 180 μl of pre-warmed DMEM (4.5 g/L glucose, 10% heat-inactivated FBS (30 min at 56 ℃), and 1% Pen-Strep-Glutamine (100 X, 50 mg/mL)). Note that if cells were grown in media containing FBS that is not heat-inactivated, media will contain alkaline phosphatase. In this case, all supernatant must thoroughly be aspirated from the cell pellet obtained after centrifugation before resuspending cells in media containing heat inactivated FBS for plating. Following incubation at 37 °C in 5% CO2 for approximately 24 hours to allow for cell adherence onto the 96 well plate, 1.8 μL of each compound dissolved in DMSO was added in quadruplicate to their respective wells to achieve a final compound concentration of 1500 nM, 500 nM, or 50 nM. 1.8 μL of DMSO was added to wells as negative controls while wells treated with EBC-46 served as positive controls. 24 hours following compound addition, 180 μL of QUANTI-BlueTM Solution (InvivoGen Cat. code rep-qbs)- medium containing QB buffer and QB Reagent for detection and quantification of alkaline phosphatase- were added into wells on a new clear flat-bottom 96-well plate. 20 μL of supernatant of either SEAP-expressing cells incubated with compound or SEAP-expressing cells incubated with DMSO only were added to the wells in the new 96-well plate containing QUANTI-BlueTM Solution. Supernatant and QUANTI-BlueTM Solution were incubated at 37 °C in 5% CO2 for approximately an hour and a half. Following incubation, optical density (OD) at 630 nm was measured for each well using a BioTek Synergy H1 microplate reader under normal read speed and with a delay of 100 msec.

J-Lat clone 10.6 cells = test: J-Lat HIV latency reversal assay (GFP expression); format: cell-based, Human; conditions: J-Lat 10.6, 48 hours; for HIV latency reversal in words: ascending concentrations
From the text: Having shown that our lead compounds bind cell-free PKC isoforms, enter cells, translocate PKC-GFP fusion proteins, and activate NF-κB transcription factors, we next set out to determine whether our analogs were capable of reversing HIV from latency. We performed in vitro assays using T lymphocyte J-Lat clone 10.6, which contains a latent near full-length replication-incompetent integrated HIV DNA genome ([72]). J-Lat 10.6 lacks two viral genes, env and nef, which encode for the envelope protein and an accessory protein, respectively, and thus cannot initiate a spreading HIV infection. The integrated HIV provirus also encodes a GFP reporter gene, allowing latency reversal to be measured by quantification of GFP expression (fig. S1). […] In this latency reversal assay, we quantified GFP expression 48 hours after compound addition and observed bryostatin 1 to be maximally effective at concentrations of 40 nM or higher with latency reversal in 12% of cells (Fig. 8). Given the efficacy of bryostatin 1 as an LRA ([73], [74]), EBC-46 and many of its analogs tested in this J-Lat assay induced latency reversal in >90% of cells. […] SUW427, an esterase-releasable prodrug of EBC-46, also performed similarly to EBC-46 with a maximum efficacy of latency reversal in >90% of cells at a dose of 250 nM. […] The gradual release of EBC-46 from its prodrug form provides an alternative mode of administration that avoids the bolus effect associated with rapid drug administration ([17]). […] This is consistent with its lack of activity in the NF-κB activation assay and its design as a negative control as it is structurally similar to EBC-46 but unable to bind to the C1 domain of PKC at the concentrations used in this assay as it lacks a complete pharmacophore.
HIV latency reversal in-vitro assay
Human T Lymphocyte J-Lat Full Length Cell Line 10.6 (cat #9849) was obtained through the NIH HIV Reagent Program, Division of AIDS, NIAID, NIH and was contributed to the NIH HIV Reagent Program by Dr. Eric Verdin (70). J-Lat 10.6 cells were plated at 5 × 10^5 cells in 180 μL of RF10 media consisting of RPMI media supplemented with 1% Penicillin/Streptomycin and 10% Fetal Bovine Serum (FBS) in 96 -well U -bottom plates. J -Lat 10.6 cells were then stimulated for 48 hr by adding 20 μL of newly designed and synthesized tigilanol tiglate analogs, PKC modulators (bryostatin 1) as our positive control or med ia only (mock) as our negative control. Our negative control was RF10 media as the tigilanol tiglate analogs were freshly diluted with RF10 prior to plating. The final volume was 200 μL per well. Experiments were performed in three independent biological replicates, each completed in technical duplicates (n = 6). After 48 hr stimulation, 96 - well U -bottom plates were centrifuged at 296 RCF for 7 minutes to pellet cells, which were resusp ended in 200 μL of freshly prepared 2% paraformaldehyde (PFA) in PBS. GF P expression was measured 24 -hours post -fixation using the FITC channel on a LSR Fortessa (BD Biosciences) flow cytometer. Data analysis was conducted with FlowJo software version 10.8.1.

SMILES	NF-κB activation (optical density, 630 nm) (NF-κB pathway; 50 nM)	NF-κB activation, times the basal level (DMSO control) (NF-κB pathway; 500 nM)	NF-κB activation (optical density, 630 nm) (NF-κB pathway; 500 nM)	NF-κB activation in words (NF-κB pathway)	maximal latency reversal, % of cells (J-Lat clone 10.6 cells; 250 nM)	NF-κB activation, times the basal level (DMSO control) (NF-κB pathway; 50 nM)	HIV latency reversal in words (J-Lat clone 10.6 cells)
C/C=C(\C)C(=O)O[C@@H]1[C@@H](C)[C@@]2(O)[C@H]([C@@H]3C(C)(C)[C@]13OC(=O)[C@@H](C)CC)[C@@H]1O[C@]1(CO)[C@@H](O)[C@]1(O)C(=O)C(C)=C[C@H]12 [EBC-46, Tigilanol tiglate]	0.35 optical density, 630 nm	~ 2.5 times	0.69 optical density, 630 nm	minimal activation of NF-κB relative to the dimethyl sulfoxide (DMSO) control	–	–	–
C/C=C(\C)C(=O)O[C@@H]1[C@@H](C)[C@]2(O)[C@@H]3C=C(C)C(=O)[C@@]3(O)[C@H](O)C(CO)=C[C@H]2[C@@H]2C(C)(C)[C@]12OC(=O)[C@@H](C)CC [SUW400]	0.41 optical density, 630 nm	–	0.67 optical density, 630 nm	comparable activity to EBC-46 at 50 and 500 nM	> 90 % of cells	–	–
C/C=C(\C)C(=O)O[C@@H]1[C@@H](C)[C@@]2(O)[C@@H](C=C(CO)C[C@]3(O)C(=O)C(C)=C[C@@H]23)[C@@H]2C(C)(C)[C@]12OC(=O)[C@@H](C)CC [SUW402]	0.71 optical density, 630 nm	–	0.63 optical density, 630 nm	strong activation of NF-κB at higher concentrations but with an inverse dose response	–	approximately three	–
CC=C(C)C(=O)OC1C(C)C2(O)C(C3OC3(CO)CC3(O)C(=O)C(C)=CC32)C2C(C)(C)C12OC(=O)C(C)CC (stereo not drawn) [SUW403]	0.39 optical density, 630 nm	–	0.67 optical density, 630 nm	comparable activity to EBC-46 at 50 and 500 nM	–	–	required a higher dose than EBC-46 before we detected reversal activity
C/C=C(\C)C(=O)O[C@@H]1[C@@H](C)[C@@]2(O)[C@H]([C@@H]3C(C)(C)[C@]13OC(=O)C1CCC1)[C@@H]1O[C@]1(CO)[C@@H](O)[C@]1(O)C(=O)C(C)=C[C@H]12 [SUW406]	0.38 optical density, 630 nm	–	0.57 optical density, 630 nm	comparable activity to EBC-46 at 50 and 500 nM	–	–	required a higher dose than EBC-46 before we detected reversal activity
C/C=C(\C)C(=O)O[C@@H]1[C@@H](C)[C@@]2(O)[C@H]([C@@H]3C(C)(C)[C@]13OC(=O)[C@H](C)CC)[C@@H]1O[C@]1(CO)[C@@H](O)[C@]1(O)C(=O)C(C)=C[C@H]12 [SUW407]	0.42 optical density, 630 nm	–	0.60 optical density, 630 nm	comparable activity to EBC-46 at 50 and 500 nM	–	–	required a higher dose than EBC-46 before we detected reversal activity
CC[C@H](C)C(=O)O[C@@]12[C@H](OC(=O)C3(C)CC3)[C@@H](C)[C@@]3(O)[C@H]([C@@H]1C2(C)C)[C@@H]1O[C@]1(CO)[C@@H](O)[C@]1(O)C(=O)C(C)=C[C@H]13 [SUW413]	0.40 optical density, 630 nm	–	0.70 optical density, 630 nm	comparable activity to EBC-46 at 50 and 500 nM	–	–	required a higher dose than EBC-46 before we detected reversal activity
C/C=C(\C)C(=O)O[C@@H]1[C@@H](C)[C@@]2(O)[C@H]([C@@H]3C(C)(C)[C@]13OC(=O)N1CCCC1)[C@@H]1O[C@]1(CO)[C@@H](O)[C@]1(O)C(=O)C(C)=C[C@H]12 [SUW421]	0.30 optical density, 630 nm	–	0.31 optical density, 630 nm	minimal activity in this assay at 50 and 500 nM	–	–	–
C/C=C(\C)C(=O)O[C@@H]1[C@@H](C)[C@]2(O)[C@@H]3C=C(C)[C@H](OC(=O)c4ccccc4)[C@@]3(O)[C@H](O)C(CO)=C[C@H]2[C@@H]2C(C)(C)[C@]12OC(=O)[C@@H](C)CC [SUW422]	0.26 optical density, 630 nm	–	0.36 optical density, 630 nm	minimal NF-κB activation at both 50 and 500 nM	–	–	required a higher dose than EBC-46 before we detected reversal activity
CC[C@H](C)C(=O)O[C@@]12[C@H](OC(=O)N3CCCC3)[C@@H](C)[C@@]3(O)[C@H]([C@@H]1C2(C)C)[C@@H]1O[C@]1(CO)[C@@H](O)[C@]1(O)C(=O)C(C)=C[C@H]13 [SUW424]	0.34 optical density, 630 nm	–	0.34 optical density, 630 nm	minimal activity in this assay at 50 and 500 nM	–	–	–
C/C=C(\C)C(=O)O[C@@H]1[C@@H](C)[C@]2(O)[C@@H]3C=C(C)[C@H](OC(=O)C=C(C)C)[C@@]3(O)[C@H](O)C(CO)=C[C@H]2[C@@H]2C(C)(C)[C@]12OC(=O)[C@@H](C)CC [SUW425]	0.34 optical density, 630 nm	–	0.47 optical density, 630 nm	minimal NF-κB activation at both 50 and 500 nM	–	–	required a higher dose than EBC-46 before we detected reversal activity

Source: publication PMC11778240, “Synthesis and preclinical evaluation of tigilanol tiglate analogs as latency-reversing agents for the eradication of HIV” (Science Advances, 2025)
